Data published in patent publication US12605462B2, “Porous silicon nanoparticle-based drug delivery system inducing reactive oxygen species and self-activation thereof, and method for preparing same” (University-Industry Cooperation Group of Kyung Hee …, priority 2021, dated 2026).

Tests used:
BxPC-3 cell lines = assay: In vitro cytotoxicity of nano-formulations; type: cell-based; settings: human
Experimental: Next, the cytotoxicity of pSiNP, JS-11, pSiNPs (JS-11), and ROSG-pSiNP (JS-11) was evaluated for BxPC-3 cell lines. The throughput of pSiNP (JS-11) and ROSG-pSiNP (JS-11) was corrected with the concentration of JS-11 (0 to 10 μM).
The cytotoxicity of two nano-formulations, pSiNP-NCS (without JS-11 and TEPITC-modifying) and pSiNP-NCS/CGKRK (SEQ ID NO: 1) (without JS-11 and CGKRK-modifying), was further analyzed to confirm the synergistic cytotoxic effect of JS-11 and TEPITC.

BxPC-3 pancreatic tumors = assay: Therapeutic efficacy in pancreatic cancer xenograft model mice; type: in vivo; settings: 20 mg/kg via tail vein on days 34, 37, 40, 43; FIG. 25
Experimental: BALB/c nude mice (females and males, 4 weeks and 5 weeks old) were commercially obtained from Nara Co., Ltd., Gyeonggi-do, Korea. BxPC-3 cells (5×10^6 cells, suspended in 100 μl mixture of RPMI medium and Matrigel, 1:1) were injected subcutaneously behind the flank of each mouse. All animal experiments were performed according to the guidelines of the Korea Kyunghee University Animal Care Committee (IACUC).
Tumor-bearing mice were randomly divided into 5 groups (n=5 per group). (1) PBS only, (2) pSiNP only, (3) JS-11, (4) pSiNP (JS-11), and (5) ROSG-pSiNP (JS-11) were administered by intravenous injection (i.v.) 4 times at intervals of 3 days at a dose of 20 mg/kg, 100 μl each.
The mouse tumor size was recorded every 3 days until the end of the experiment, and the tumor volume was calculated by the formula V=[(tumor length)×(tumor width)^2]/[…]. At the end of the experiment (day 22), the body of each mouse was photographed with a digital camera, and body weight was measured.
Finally, the cancer treatment efficacy of ROSG-pSiNP (JS-11) was evaluated in pancreatic cancer xenograft model mice. To induce pancreatic tumors, BxPC-3 cells were injected subcutaneously behind the flank of mice on day 0. […] Changes in tumor volume and body weight in mice were monitored, and toxic effects were investigated for practical applications.

[1] = Conversion of JS-11 to SN-38 by ROS (emission change); type: physicochemical; settings: 37° C.; reacted only with H2O2
Experimental: To confirm whether JS-11 is converted to SN-38 by ROS, the change in the emission spike of JS-11 using H2O2 at 37° C. was measured. Since JS-11 has no electron push-pull capability, there is no emission in aqueous media but decomposes upon exposure to H2O2 and fluoresces at 560 nm.

BxPC-3 cells [2] = assay: Cytotoxicity of isothiocyanates (CCK-8 assay); type: cell-based, Human; settings: 10 μM, 24 hours
Experimental: Next, the cytotoxicity of TEPITC was analyzed. BxPC-3 cells were treated with 0 to 10 μM of TEPITC or PEITC and incubated for 24 hours, and cytotoxicity and viability were analyzed by CCK-8 assay.

Nrf2 = Nrf2 immunofluorescence / nuclear translocation (CLSM); type: cell-based, Human; settings: 30 minutes, BxPC-3
Experimental: CLSM imaging was used to verify that […] induces nuclear translocation of cytoplasmic Nrf2. BxPC-3 cells were treated with […] (0 to 10 μM), incubated for 30 minutes, and visualized by treatment with Nrf2 antibody and DAPI.

BxPC-3 cells [3] = assay: PEITC/TEPITC-induced intracellular ROS generation (DCFDA/DCF kit, CLSM); type: cell-based, Human; settings: 20 μM, 2 hours; for fluorescence intensity-based enhancement factor (DCF, ROS level) compared with before chemical treatment: FIG. 4 (BxPC-3)
Experimental: The intracellular ROS levels of cells were analyzed using the 2',7'-dichlorofluorosine diacetate (DCFDA/H2DCFDA) cell ROS detection analysis kit. BxPC-3, AsPC-1, and PANC-1 cells (1×10^5 cells/mL, 100 μl/well) were inoculated into 96-well black plates and incubated at 37° C. for 24 hours. The cells were then treated with PEITC or […] at 1.25, 2.5, 5, 10, and 20 μM, respectively, and then incubated at 37° C. for 2 hours. As a positive control group, a set treated with hydrogen peroxide (H2O2) was prepared. The cells were then treated with 20 μM DCFDA (100 μl) at 37° C. for 45 minutes. Excitation/emission wavelengths at 485/535 nm were measured with a microplate reader (Fluorostar Omega, BMG Labtech, Germany). Intracellular ROS generation was assessed by CLSM (LSM800, Carl Zeiss, Oberkochen, Germany) imaging using BxPC-3 cells. BxPC-3 cells (1×10^5 cells/mL, 2 mL) were inoculated into confocal plates. After 24 hours incubation, cells were treated with 20 μM PEITC and […] for 2 hours. The cells were then stained with 20 μM DCFDA (200 μL) at 37° C. for 45 minutes, washed 3 times with PBS, and stained with DAPI for 10 minutes. After washing 3 times, the cells were fixed with 4% paraformaldehyde for 20 minutes. The excitation and emission channels are: DAPI (405 nm, 400-520 nm band filter), ROS (488 nm, 400-585 nm band filter). Cells were contacted with ITC, and intracellular ROS generation was assessed. Human pancreatic cell lines BxPC-3, AsPC-1, and PANC-1 were treated with […], and ROS levels were measured using the DCFDA/DCF kit. When 2',7'-dichlorofluorescein diacetate (DCFDA) diffuses into cells, it is deacetylated to H2DCF by cellular esterase, and when H2DCF comes into contact with ROS, it is converted to green fluorescent DCF. Phenethyl isothiocyanate (PEITC) and H2O2 were used as positive control groups. Each chemical substance ([…], and H2O2, concentration=0 to 20 μM) were treated on the cell line and incubated for 2 hours.

heme oxygenase-1 (HO-1) = assay: HO-1 expression in BxPC-3 cells by Western blot; type: cell-based, Human; settings: 5 μM, 0 to 6 hours
Experimental: The expression level of HO-1, an antioxidant enzyme essential for cell protection against oxidative stress, was also analyzed. Cells were treated with […] (5 μM) and incubated for 0 to 6 hours. […] This is thought to be because Nrf2 is a transcription factor that regulates the expression of HO-1.

[4] = tested on: nuclear factor erythroid 2-related factor 2 (Nrf2); assay: Nrf2 expression in BxPC-3 cells by Western blot (TEPITC/PEITC); type: cell-based, Human; settings: for time of greatest increase in Nrf2 expression after incubation / expression of Nrf2: 20 μM; for expression of Nrf2: 0 to 4 hours
Experimental: Oxidative stress-related signaling pathways were analyzed to confirm the association between […] treatment and intracellular ROS upregulation. PEITC was used as a positive control group. PEITC is known to induce Nrf2 accumulation in human prostate cancer PC-3 cells and increase the expression of endogenous heme oxygenase-1 (HO-1) protein. According to FIG. 7A, BxPC-3 cells were treated with […] It is noteworthy that the expression of Nrf2 in the […] treatment group was maximum 30 minutes after incubation began but decreased from 1 hour later.

Row | SMILES | cytotoxicity (BxPC-3 cell lines; 0.625 μM) [%] | cytotoxicity (BxPC-3 cell lines; 10 μM) [%] | mean tumor volume (BxPC-3 pancreatic tumors) [mm^3] | conversion to SN-38 under pH 3 to 10, metal ions and biomolecules [1] | cytotoxicity compared to the untreated group cells (BxPC-3 cells [2]) | Nrf2 immunofluorescence localisation (Nrf2; 2.5 μM) | Nrf2 immunofluorescence localisation (Nrf2; 5 μM) | Nrf2 immunofluorescence localisation (Nrf2; 10 μM) | intracellular ROS level (fluorescence analysis and CLSM images) (BxPC-3 cells [3]; BxPC-3) | fluorescence intensity-based enhancement factor (DCF, ROS level) compared with before chemical treatment (BxPC-3 cells [3]) [times] | expression level of intracellular HO-1 (heme oxygenase-1 (HO-1)) | time of highest HO-1 expression (heme oxygenase-1 (HO-1)) | increase in Nrf2 level, concentration dependence ([4]; 0 to 20 μM) | time of greatest increase in Nrf2 expression after incubation [4] [min] | expression of Nrf2 [4]
1 | CCc1c2c(nc3ccc(OC(=O)c4ccccc4Nc4cccc(C)c4C)cc13)-c1cc3c(c(=O)n1C2)COC(=O)[C@]3(O)CC [JS-11] | 21.60 | 42.4 | 183.1±40.8 | did not show the conversion to SN-38 | – | – | – | – | – | – | – | – | – | – | –
2 | CCO[Si](CCCN=C=S)(OCC)OCC [TEPITC, 3-isothiocyanatopropyltriethoxysilane] | – | – | – | – | up to 80% | increase in Nrf2 expression in the cytoplasm | in the nucleus Nrf2 expression was observed | Nrf2 signal in the nucleus was weakened | upregulates the intracellular ROS level, and the effect was superior to PEITC | 6.34 | significantly increased | 2 h and 4 h | concentration-dependent in the range of 2.5 to 10 μM | 30 | significantly increased
3 | S=C=NCCc1ccccc1 [PEITC, Phenethyl isothiocyanate, reference compound] | – | – | – | – | – | – | – | – | – | 3.67 | – | – | – | 30 | significantly increased
